≈ marks a conversion by molar mass, not a printed value. Where two headings read alike, the source gives them in different places.

This note sets out measurements from patent US20040110756A1, “New anthracene derivatives and their use as pharmaceutical preparations” (priority 2002, published 2004).

Common to all, as to type: cell-based
The test system of one data set is rat glioma cell line C6. Description: XTT proliferation assay, C6. The following applies: C6 rat glioma cells, average of two independent experiments. From the text:
(§1) For further characterization, substance 2 was investigated for its anti-proliferative effect using a panel of 12 human tumor cell lines. The cell lines used were the human glioma cell lines A172 (ATCC CRL-1620), U118 (ATCC HTB-15) and U373 (ATCC HTB-17), the rat glioma cell line C6 (ATCC CCL-107), the human lung carcinoma cell line A549, the human epidermoid carcinoma A431 (ATCC CRL-2592), the human prostate cancer cell lines DU145 (ATCC HTB-81) and PC3 (ATCC CRL-1435), the human colon adenocarcinoma cell line HT 29 (ATCC HTB-38), the human pancreas adenocarcinoma cell line ASPC1 (ATCC CRL-1682) and the human breast cancer cell lines T47D (ECACC 88062428) and MCAMB435 (NCI 914182). […]
(§2) The adherent, growing tumor cell lines KB/HeLa, SKOV-3, SF-268, NCI-H460, ASPC1, A172, A431, A549, DU145, C6, MDAMB435, HT29, PC3, T47D, U118MG and U373MG were cultured under standard conditions in the gassing incubator at 37° C., 5% CO2 and 95% relative humidity. […] Subsequently, the cell plates were incubated for a further 3 hours in a gassing incubator and the optical density (OD490 nm) was determined in the photometer. The percentage inhibition, relative to the control, is determined by means of the OD490 nm and plotted semi-logarithmically in the form of a concentration vs. activity curve. […]

Data set [1] has as its system human breast cancer cell line T47D. Description: XTT proliferation assay, T47D. The note with it: T47D cells, average of two independent experiments.
Text: as §1, §2

Data set [2] relates to ovarian adenocarcinoma cell line SKOV-3. Briefly: XTT proliferation assay, SKOV-3. The following applies: Homo sapiens, SK-OV-3; SKOV-3 cells, 45 hours incubation.
Text: (§3) The substance of Example 2 was investigated in a proliferation test on established tumor cell lines for its anti-proliferative activity. The test used determines the cellular dehydrogenase activity and enables the cell vitality and, indirectly, the cell count to be determined. The cell lines used are the human cervix carcinoma cell line KB/HeLa (ATCC CCL17), the ovarian adenocarcinoma cell line SKOV-3 (ATCC HTB77), the human glioblastoma cell line SF-268 (NCI 503138) and the lung carcinoma cell line NCI-H460 (NCI 503473). Moreover, for investigating the effect of the substance specifically on the cell cycle, an RKOp27 cell system was used (M. Schmidt et al. Oncogene 19(20):2423-9, 2000). […]
as §2

The subject of data set [3] is RKOp27 human colon carcinoma cells. Briefly: Cell cycle analysis by means of the RKOp27 model (XTT). The note with it: for EC50: Homo sapiens, RKOp27, 45 h.
Text: The substance of Example 2 was investigated in a proliferation test on established tumor cell lines for its anti-proliferative activity. The test used determines the cellular dehydrogenase activity and enables the cell vitality and, indirectly, the cell count to be determined. The cell lines used are the human cervix carcinoma cell line KB/HeLa (ATCC CCL17), the ovarian adenocarcinoma cell line SKOV-3 (ATCC HTB77), the human glioblastoma cell line SF-268 (NCI 503138) and the lung carcinoma cell line NCI-H460 (NCI 503473). Moreover, for investigating the effect of the substance specifically on the cell cycle, an RKOp27 cell system was used (M. Schmidt et al. Oncogene 19(20):2423-9, 2000). The RKO is a human colon carcinoma line, in which the cell cycle inhibitor p27^kip1 was expressed by means of the Ecdyson Expression System and can be brought to a cell cycle arrest in G2. A substance of nonspecific activity inhibits the proliferation independently of whether the RKO cell is or is not arrested in G1 or G2. On the other hand, cell cycle specific substances, such as tubulin inhibitors, are cytotoxic only when the cells are not arrested and passed through the cell cycle. In Table 2, the cytotoxic or growth-inhibiting activity of the compound described is shown with and without expression of p27^kip1.
as §2, with “curve. The EC50 is calculated from the concentration-activity curve by means of a regression analysis, using the Graphpad Prism program” for “curve.”

Data set [4] has as its system human lung carcinoma cell line A549. Briefly: XTT proliferation assay, A549. The following applies: A549 cells, average of two independent experiments.
Text: as §1, §2
On the technique in general: Formazan colour is commonly taken as a measure of viable cells.

For data set [5], the system named is human pancreas adenocarcinoma cell line ASPC1. Briefly: XTT proliferation assay, ASPC1. The note with it: ASPC1 cells, average of two independent experiments.
Text: as §1, §2

For data set [6], the system named is human epidermoid carcinoma A431. Briefly: XTT proliferation assay, A431. The following applies: A-431, A431 cells, average of two independent experiments.
Text: as §1, §2

Data set [7] deals with human glioma cell line U373. Description: XTT proliferation assay, U373MG. The following applies: U373 MG, U373MG cells, average of two independent experiments.
Text: as §1, §2

In data set [8] the test system is human glioblastoma cell line SF-268. Description: XTT proliferation assay, SF-268. The following applies: SF-268 cells, 45 hours incubation.
Text: as §3, §2

Data set [9] relates to lung carcinoma cell line NCI-H460. Description: XTT proliferation assay, NCI-H460. The following applies: Homo sapiens; NCI-H460 cells, 45 hours incubation.
Text: as §3, §2

Data set [10] has as its system human glioma cell line A172. Briefly: XTT proliferation assay, A172. The following applies: A 172, A172 cells, average of two independent experiments.
Text: as §1, §2

In data set [11] the test system is human prostate cancer cell line PC3. Briefly: XTT proliferation assay, PC3. The following applies: PC-3, PC3 cells, average of two independent experiments.
Text: as §1, §2

For data set [12], the system named is human prostate cancer cell line DU145. Description: XTT proliferation assay, DU145. The note with it: DU-145, DU145 cells, average of two independent experiments.
Text: as §1, §2

The test system of data set [13] is human glioma cell line U118. Briefly: XTT proliferation assay, U118MG. The note with it: U-118-MG, U118MG cells, average of two independent experiments.
Text: as §1, §2

In data set [14] the test system is human cervix carcinoma cell line KB/HeLa. Briefly: XTT proliferation assay, KB/HeLa. The following applies: KB/HeLa cells, 45 hours incubation.
Text: as §3, §2

The subject of data set [15] is human breast cancer cell line MDA MB435. Briefly: XTT proliferation assay, MDA MB435. The note with it: MDA-MB-435, MDA MB435 cells, average of two independent experiments.
Text: as §1, §2

Data set [16] has as its system human colon adenocarcinoma cell line HT 29. Description: XTT proliferation assay, HT29. The note with it: HT29 cells, average of two independent experiments.
Text: as §1, §2

Turning to `COc1cc(OC)cc(N2CCN(C(=O)c3c4ccccc4cc4ccccc34)CC2)c1` [Example 2, Anthracene-9-yl-[4-(3,5-dimethoxy-phenyl)-piperazine-1-yl]-methanone], the EC50 in the data set on rat glioma cell line C6 is 0.17 µg/mL (≈ 0.399 µM); in data set [1] it was 0.022 µg/mL (≈ 0.0516 µM); in data set [2], 0.047 µg/mL (≈ 0.11 µM); in [3] (read-out: XTT Proliferation Assay, EC50 RKOP27), 0.058 µg/mL (≈ 0.136 µM); in data set [3] (read-out: XTT Proliferation Assay, EC50 RKOP27 ind.), above 3.16 µg/mL; in data set [4], 0.066 µg/mL (≈ 0.155 µM). Besides, the EC50 in data set [5] was 0.11 µg/mL (≈ 0.258 µM); in [6], 0.044 µg/mL (≈ 0.103 µM); in data set [7], 0.057 µg/mL (≈ 0.134 µM); in data set [8], 0.043 µg/mL (≈ 0.101 µM); in data set [9], 0.054 µg/mL (≈ 0.127 µM); in data set [10], 0.046 µg/mL (≈ 0.108 µM). Besides, the EC50 in data set [11] was determined as 0.049 µg/mL (≈ 0.115 µM); in data set [12] it was 0.045 µg/mL (≈ 0.106 µM); in [13] it was 0.059 µg/mL (≈ 0.138 µM); in data set [14] it was 0.048 µg/mL (≈ 0.113 µM); in data set [15] it was 0.054 µg/mL (≈ 0.127 µM); in [16] it was 0.061 µg/mL (≈ 0.143 µM). Also, the “cytotoxic activity in the induced state of p27kip1” value in data set [3] (RKOp27 cells, p27kip1 induced) is listed as “did not show any cytotoxic activity”.
